Assay results: article PMC5933261, “A phase 1 dose-escalation study of veliparib with bimonthly FOLFIRI in patients with advanced solid tumours” (British Journal of Cancer, 2018)

Columns and labels:
[1] = test system: patients with advanced solid tumours
Description: This phase 1 open-label, multicentre, dose-escalation, and safety expansion study evaluated veliparib in combination with bimonthly FOLFIRI in patients with advanced solid tumours. The primary objectives were to determine the maximum tolerated dose (MTD) and establish the recommended phase 2 dose (RP2D) of the combination therapy. Secondary objectives were to assess the safety and tolerability, PK profile, and exploratory efficacy of the combination for each of the FOLFIRI regimens. Patients received veliparib and bimonthly FOLFIRI in 28-day cycles. Veliparib was administered on days 15–19 in cycle 1 and on days 1–5 and 15–19 in subsequent cycles (Fig. 1). Patients with stable disease or better status could continue veliparib and bimonthly FOLFIRI at the investigator’s discretion until progressive disease (PD), unacceptable toxicity, or FOLFIRI discontinuation. The trial was registered with the ClinicalTrials.gov registry (NCT01123876) and was approved by appropriate independent ethics committees/institutional review boards prior to initiation. The study was performed in accordance with the 1964 Declaration of Helsinki and its later amendments. Written informed consent was obtained from all patients before study enrollment.
Dose escalation occurred in three parts to evaluate the MTD/RP2D of three different bimonthly FOLFIRI regimens in combination with veliparib (Fig. 1). A minimum of three patients per dose level were included for dose-toxicity modeling. In part 1, dose escalation began with veliparib twice daily (BID) on days 15–19 of cycle 1 (to allow the determination of single-agent PK for irinotecan, the active metabolite of irinotecan (SN-38), folinic acid, and 5-FU on cycle 1 day 1). In parts 2 and 3, dose escalation began with veliparib BID on day 15 of cycle 1. The differences in the dosing schedules of parts 1, 2, and 3 relate to dosing of irinotecan and 5-FU, and are detailed in Fig. 1. In all parts, veliparib continued to be administered on days 1–5 and 15–19 of each subsequent 28-day cycle. […]

[2] = test system: patients with advanced solid tumours; design: method as in PMID 26842236; details: veliparib 40 mg BID days 1–14 of a 21-day cycle with irinotecan 100 mg/m^2 day 1 and 8; cited from earlier work
[3] = test system: triple-negative breast cancer; design: method as in doi:10.1158/1538-7445.AM2015-CT325; details: veliparib in combination with irinotecan; cohort with germline BRCA mutation; cited from earlier work
[4] = Pharmacokinetics of FOLFIRI components with and without veliparib (relative bioavailability); details: cycle 1 day 15 vs cycle 1 day 1
Description: Treatment-emergent adverse events (TEAEs) were assessed from the time of study drug administration until 30 days following discontinuation of study drug. TEAEs were assessed according to the National Cancer Institute Common Terminology Criteria for Adverse Events version 4.0. In dose-escalation cohorts, blood samples were collected on day 15 of cycle 1 for veliparib PK, and on days 1 and 15 of cycle 1 for PK assessment of the FOLFIRI components irinotecan, SN-38, folinic acid (leucovorin), and 5-FU. Exploratory efficacy end points included objective response rate (ORR), time to disease progression (TTP), duration of overall response (DOR), and ECOG performance status. Objective response rate included confirmed complete response (CR) and partial response (PR). Objective response rate evaluation was based on Response Evaluation Criteria in Solid Tumours version 1.1. Objective response rate was calculated for all patients with one or more measurable lesions at baseline. Time to disease progression was defined as the number of days from the date the patient started study drug to the date of the patient’s disease progression. Duration of overall response was defined as the number of days from the day criteria were met for CR or PR (whichever was recorded first) to the date that PD was objectively documented. If a patient was still responding, the patient’s data were censored at the date of the last study visit at which a tumour assessment was performed. Analyses of change and/or percentage change from baseline for tumour size were performed for each scheduled post-baseline visit and for the final visit. ECOG performance status was assessed at all visits, with descriptive statistics summarised for each assessment. In addition, a mean change from baseline to each assessment time was summarised.
The sample size was based on clinical justification. No specific statistical hypothesis tests were planned, with descriptive statistics used for the analysis of safety, PK, and tumour response data. The study population for all safety and preliminary efficacy analyses included patients who received one or more doses of study medication. Data from parts 1–3 of the dose-escalation cohort were combined for assessment of the effect of veliparib on the PK of irinotecan, SN-38, and folinic acid. Linear mixed effects models were performed on natural logarithmically transformed maximum plasma concentration (Cmax) and area under the plasma or serum concentration-time curve (AUC) to compare exposure of irinotecan, SN-38, and folinic acid with and without the administration of veliparib. Point estimates and the corresponding 90% confidence intervals (CIs) of the ratio of central values with and without veliparib administration were calculated.

advanced solid tumours = experiment: Exploratory efficacy: ORR (RECIST version 1.1), TTP, DOR; type: in vivo, human
Description: The sample size was based on clinical justification.

## C[C@]1(c2nc3c(C(N)=O)cccc3[nH]2)CCCN1 [veliparib, Veliparib]
[1]; human, in vivo
  Recommended phase 2 dose (RP2D) of veliparib: 200 mg BID
[1]; veliparib 10–270 mg BID plus FOLFIRI, Bayesian CRM
  Maximum tolerated dose (MTD): not reached
[2]
  Tolerability: well tolerated
[3]
  Preliminary response rate: 88%
[4]
  Effect of veliparib on the pharmacokinetics of FOLFIRI components: no significant effect
[4]; listed as Veliparib
  Effect of veliparib on the pharmacokinetics of FOLFIRI components: no effect
Advanced solid tumours; expanded safety cohort, colorectal (N=6)
  Median time to disease progression (TTP): 195 days
Advanced solid tumours; expanded safety cohort, colorectal cancer (n = 6), veliparib RP2D plus FOLFIRI
  6-month TTP rate: 60.0%
Advanced solid tumours; expanded safety cohort, gastric (N=14)
  Median time to disease progression (TTP): 223 days
Advanced solid tumours; expanded safety cohort, gastric cancer (n = 14), veliparib RP2D plus FOLFIRI
  6-month TTP rate: 53.8%
Advanced solid tumours; veliparib plus FOLFIRI
  Complete response (CR): not achieved by any patients
  Patients with a partial response: Fifteen
Advanced solid tumours; veliparib plus FOLFIRI, 85 patients with measurable lesions at baseline
  Objective response rate (ORR): 17.6%
Advanced solid tumours; veliparib plus FOLFIRI, Breast n = 8
  ORR (CR + PR): 2 (25.0) (3.2–65.1) n (%) (95% CI)
Advanced solid tumours; veliparib plus FOLFIRI, Colorectal n = 9
  ORR (CR + PR): 2 (22.2) (2.8–60.0) n (%) (95% CI)
Advanced solid tumours; veliparib plus FOLFIRI, Gastric n = 20
  ORR (CR + PR): 3 (15.0) (3.2–37.9) n (%) (95% CI)
Advanced solid tumours; veliparib plus FOLFIRI, Other n = 27
  ORR (CR + PR): 3 (11.1) (2.4–29.2) n (%) (95% CI)
Advanced solid tumours; veliparib plus FOLFIRI, Ovarian n = 7
  ORR (CR + PR): 3 (42.9) (9.9–81.6) n (%) (95% CI)
Advanced solid tumours; veliparib plus FOLFIRI, Overall n = 85, measurable lesions at baseline
  ORR (CR + PR): 15 (17.6) (10.2–27.4) n (%) (95% CI)
Advanced solid tumours; veliparib plus FOLFIRI, Pancreatic n = 14
  ORR (CR + PR): 2 (14.3) (1.8–42.8) n (%) (95% CI)
Advanced solid tumours; veliparib plus FOLFIRI, all dosed patients, colorectal (N=10)
  Median time to disease progression (TTP): 195 days
Advanced solid tumours; veliparib plus FOLFIRI, all dosed patients, gastric (N=20)
  Median time to disease progression (TTP): 157 days
Advanced solid tumours; veliparib plus FOLFIRI, all dosed patients, ovarian (N=9)
  Median time to disease progression (TTP): 361 days
Advanced solid tumours; veliparib plus FOLFIRI, breast cancer
  Objective response rate (ORR): 25.0%
Advanced solid tumours; veliparib plus FOLFIRI, breast cancer (n = 9)
  6-month TTP rate: 22.2%
Advanced solid tumours; veliparib plus FOLFIRI, colorectal cancer
  Objective response rate (ORR): 22.2%
Advanced solid tumours; veliparib plus FOLFIRI, colorectal cancer (n = 10)
  6-month TTP rate: 50.8%
Advanced solid tumours; veliparib plus FOLFIRI, gastric cancer (n = 20)
  6-month TTP rate: 45.9%
Advanced solid tumours; veliparib plus FOLFIRI, other cancers (n = 30)
  6-month TTP rate: 21.2%
Advanced solid tumours; veliparib plus FOLFIRI, ovarian cancer (n = 7)
  Objective response rate (ORR): 42.9%
Advanced solid tumours; veliparib plus FOLFIRI, ovarian cancer (n = 9)
  6-month TTP rate (probability of remaining progression-free for 6 months): 65%
Advanced solid tumours; veliparib plus FOLFIRI, pancreatic cancer
  Objective response rate (ORR): 14.3%
Advanced solid tumours; veliparib plus FOLFIRI, pancreatic cancer (n = 14)
  6-month TTP rate: 26.8%
Advanced solid tumours; veliparib plus FOLFIRI, patients who received irinotecan 150 mg/m^2
  Median duration of overall response (DOR): 560 days
Advanced solid tumours; veliparib plus FOLFIRI, previously treated patient population
  Response rates: over 15%
